Source: patent US10329309B2, “3-(3H-imidazo[4,5-B]pyridin-2-yl)-1H-pyrazolo[4,3-B]pyridines and therapeutic uses thereof” (Samumed, LLC, priority 2015, dated 2019)

Experiments:
[1] = system: IL-6 (THP-1 cells); assay: Inhibition of IL-6 in LPS-stimulated THP-1 monocytes (HTRF); type: cell-based; conditions: Homo sapiens; for EC50: LPS 500 ng/mL, IL-6 by HTRF; for inhibition at 10 µM: LPS stimulated, IL-6, at 10 μM, read-out: percent inhibition at 10 μM (given for EC50 of >10 μM)
Outline: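 THP-1 cells, serum-starved in 1% FBS for 24 h, were pre-incubated 2 h with compound (10-point, 1:3 from 10 μM, 0.1% DMSO), then stimulated with 500 ng/mL LPS for 22 h at 37 °C. IL-6 was quantified by HTRF 665/620 ratio. EC50 was fitted from DMSO-normalized data; above 10 μM, % inhibition at 10 μM is given.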

[2] = system: Wnt activity (Sp5-Luc reporter, SW480 colon carcinoma cells); assay: Screening assay for Wnt activity: Sp5-Luc reporter gene assay in SW480 cells; type: cell-based; conditions: Homo sapiens; for inhibition at 10 µM: 10 μM compound, read-out: percent inhibition at 10 μM (given for EC50 of >10 μM); for EC50: overnight incubation, 10-point dose-response from 10 μM
Outline: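 SW480 cells stably carrying Sp5-Luc reporter (eight TCF/LEF sites) plated at 4,000/well in 1% FBS medium with compound (10-point 1:3 series from 10 μM, 0.1% DMSO) overnight at 37 °C. BrightGlo luminescence normalized to DMSO; EC50 by four-parameter fit, else % inhibition at 10 μM.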

Compound | EC50 [1] | inhibition at 10 µM [1] | inhibition at 10 µM [2] | EC50 [2]
CCC(=O)Nc1cncc(-c2ccc3[nH]nc(-c4nc5c(N6CCCCC6)ccnc5[nH]4)c3n2)c1 [Compound 169, N-(5-(3-(7-(piperidin-1-yl)-3H-imidazo[4,5-b]pyridin-2-yl)-1H-pyrazolo[4,3-b]pyridin-5-yl)pyridin-3-yl)propionamide] | > 10 µM | 12.7% | 44.2% | > 10 µM
CN(C)c1cncc(-c2ccc3[nH]nc(-c4nc5c(N6CCCCC6)ccnc5[nH]4)c3n2)c1 [Compound 175, N,N-dimethyl-5-(3-(7-(piperidin-1-yl)-3H-imidazo[4,5-b]pyridin-2-yl)-1H-pyrazolo [4,3-b]pyridin-5-yl)pyridin-3-amine] | > 10 µM | 27.6% | 0% | > 10 µM
CN(C)Cc1cncc(-c2ccc3[nH]nc(-c4nc5c(N6CCCCC6)ccnc5[nH]4)c3n2)c1 [Compound 181, N,N-dimethyl-1-(5-(3-(7-(piperidin-1-yl)-3H-imidazo[4,5-b]pyridin-2-yl)-1H-pyrazolo[4,3-b]pyridin-5-yl)pyridin-3-yl)methanamine] | 8.3 µM | – | 2.2% | > 10 µM
Cc1cn(-c2ccnc3[nH]c(-c4n[nH]c5ccc(-c6cncc(NC(=O)CC(C)C)c6)nc45)nc23)cn1 [Compound 198, 3-methyl-N-(5-(3-(7-(4-methyl-1H-imidazol-1-yl)-3H-imidazo[4,5-b]pyridin-2-yl)-1H-pyrazolo[4,3-b]pyridin-5-yl)pyridin-3-yl)butanamide] | > 10 µM | 29.1% | 27.6% | > 10 µM
Cc1cn(-c2ccnc3[nH]c(-c4n[nH]c5ccc(-c6cncc(NC(=O)C(C)(C)C)c6)nc45)nc23)cn1 [Compound 204, N-(5-(3-(7-(4-methyl-1H-imidazol-1-yl)-3H-imidazo[4,5-b]pyridin-2-yl)-1H-pyrazolo[4,3-b]pyridin-5-yl)pyridin-3-yl)pivalamide] | > 10 µM | 36.3% | 12.2% | > 10 µM
Cc1cn(-c2ccnc3[nH]c(-c4n[nH]c5ccc(-c6cncc(CN7CCCC7)c6)nc45)nc23)cn1 [Compound 210, 3-(7-(4-methyl-1H-imidazol-1-yl)-3H-imidazo[4,5-b]pyridin-2-yl)-5-(5-(pyrrolidin-1-ylmethyl)pyridin-3-yl)-1H-pyrazolo[4,3-b]pyridine] | > 10 µM | 21.7% | 31.5% | > 10 µM
Cc1cn(-c2ccnc3[nH]c(-c4n[nH]c5ccc(-c6cncc(NC(=O)C7CCC7)c6)nc45)nc23)cn1 [Compound 217, N-(5-(3-(7-(4-methyl-1H-imidazol-1-yl)-3H-imidazo[4,5-b]pyridin-2-yl)-1H-pyrazolo[4,3-b]pyridin-5-yl)pyridin-3-yl)cyclobutanecarboxamide] | > 10 µM | 35.6% | 13.9% | > 10 µM
CN1CCN(c2ccnc3[nH]c(-c4n[nH]c5ccc(-c6cncc(N)c6)nc45)nc23)CC1 [Compound 227, 5-(3-(7-(4-methylpiperazin-1-yl)-3H-imidazo[4,5-b]pyridin-2-yl)-1H-pyrazolo[4,3-b]pyridin-5-yl)pyridin-3-amine] | > 10 µM | 51.9% | 8.2% | > 10 µM
CC(C)C(=O)Nc1cncc(-c2ccc3[nH]nc(-c4nc5c(N6CCN(C)CC6)ccnc5[nH]4)c3n2)c1 [Compound 233, N-(5-(3-(7-(4-methylpiperazin-1-yl)-3H-imidazo[4,5-b]pyridin-2-yl)-1H-pyrazolo [4,3-b]pyridin-5-yl)pyridin-3-yl)isobutyramide] | > 10 µM | 16.4% | 2.3% | > 10 µM
CN1CCN(c2ccnc3[nH]c(-c4n[nH]c5ccc(-c6cncc(NC(=O)C7CCCC7)c6)nc45)nc23)CC1 [Compound 246, N-(5-(3-(7-(4-Methylpiperazin-1-yl)-3H-imidazo[4,5-b]pyridin-2-yl)-1H-pyrazolo[4,3-b]pyridin-5-yl)pyridin-3-yl)cyclopentanecarboxamide] | > 10 µM | 15.7% | 4.2% | > 10 µM
CN1CCN(c2ccnc3[nH]c(-c4n[nH]c5ccc(-c6cncnc6)nc45)nc23)CC1 [Compound 251, 3-(7-(4-Methylpiperazin-1-yl)-3H-imidazo[4,5-b]pyridin-2-yl)-5-(pyrimidin-5-yl)-1H-pyrazolo[4,3-b]pyridine] | > 10 µM | 8.3% | 16.5% | > 10 µM
c1cncc(-c2ccc3[nH]nc(-c4nc5cccnc5[nH]4)c3n2)c1 [Compound 256, 3-(3H-imidazo[4,5-b]pyridin-2-yl)-5-(pyridin-3-yl)-1H-pyrazolo[4,3-b]pyridine] | > 10 µM | 24.4% | 43.4% | > 10 µM
O=C(Cc1ccccc1)Nc1cncc(-c2ccc3[nH]nc(-c4nc5cccnc5[nH]4)c3n2)c1 [Compound 262, N-(5-(3-(3H-imidazo[4,5-b]pyridin-2-yl)-1H-pyrazolo[4,3-b]pyridin-5-yl)pyridin-3-yl)-2-phenylacetamide] | > 10 µM | 17.3% | 7.6% | > 10 µM
CC(C)(C)CC(=O)Nc1cncc(-c2ccc3[nH]nc(-c4nc5cccnc5[nH]4)c3n2)c1 [Compound 268, N-(5-(3-(3H-Imidazo[4,5-b]pyridin-2-yl)-1H-pyrazolo[4,3-b]pyridin-5-yl)pyridin-3-yl)-3,3-dimethylbutanamide] | > 10 µM | 32.5% | 1.9% | > 10 µM
O=C(Nc1cncc(-c2ccc3[nH]nc(-c4nc5cccnc5[nH]4)c3n2)c1)C1CCCCC1 [Compound 275, N-(5-(3-(3H-Imidazo[4,5-b]pyridin-2-yl)-1H-pyrazolo[4,3-b]pyridin-5-yl)pyridin-3-yl)cyclohexanecarboxamide] | > 10 µM | 33.1% | 3.1% | > 10 µM
CCC(=O)Nc1cncc(-c2ccc3[nH]nc(-c4nc5c(-c6ccsc6)ccnc5[nH]4)c3n2)c1 [Compound 281, N-(5-(3-(7-(thiophen-3-yl)-3H-imidazo[4,5-b]pyridin-2-yl)-1H-pyrazolo[4,3-b]pyridin-5-yl)pyridin-3-yl)propionamide] | > 10 µM | 25% | 28.3% | > 10 µM
CN(C)c1cncc(-c2ccc3[nH]nc(-c4nc5c(-c6cccs6)ccnc5[nH]4)c3n2)c1 [Compound 343, N,N-dimethyl-5-(3-(7-(thiophen-2-yl)-3H-imidazo[4,5-b]pyridin-2-yl)-1H-pyrazolo [4,3-b]pyridin-5-yl)pyridin-3-amine] | 0.004 µM | – | 31.7% | > 10 µM
Cc1ccc(-c2ccnc3[nH]c(-c4n[nH]c5ccc(-c6cncc(NC(=O)C7CCCC7)c6)nc45)nc23)s1 [Compound 414, N-(5-(3-(7-(5-Methylthiophen-2-yl)-3H-imidazo[4,5-b]pyridin-2-yl)-1H-pyrazolo[4,3-b]pyridin-5-yl)pyridin-3-yl)cyclopentanecarboxamide] | 1.85 µM | – | 47% | > 10 µM
CCNCc1cncc(-c2ccc3[nH]nc(-c4nc5c(-c6cc(F)cc(NCCN(C)C)c6)ccnc5[nH]4)c3n2)c1 [Compound 454, N^1-(3-(2-(5-(5-((ethylamino)methyl)pyridin-3-yl)-1H-pyrazolo[4,3-b]pyridin-3-yl)-3H-imidazo[4,5-b]pyridin-7-yl)-5-fluorophenyl)-N^2,N^2-dimethylethane-1,2-diamine] | > 10 µM | 36.4% | 43.4% | > 10 µM
CCCCC(=O)Nc1cncc(-c2ccc3[nH]nc(-c4nc5c(-c6cc(F)cc(NCCN(C)C)c6)ccnc5[nH]4)c3n2)c1 [Compound 467, N-(5-(3-(7-(3-((2-(dimethylamino)ethyl)amino)-5-fluorophenyl)-3H-imidazo[4,5-b]pyridin-2-yl)-1H-pyrazolo[4,3-b]pyridin-5-yl)pyridin-3-yl)pentanamide] | > 10 µM | 23% | 34.1% | > 10 µM
CN(C)CCNc1cc(F)cc(-c2ccnc3[nH]c(-c4n[nH]c5ccc(-c6ccccn6)nc45)nc23)c1 [Compound 476, N^1-(3-Fluoro-5-(2-(5-(pyridin-2-yl)-1H-pyrazolo[4,3-b]pyridin-3-yl)-3H-imidazo[4,5-b]pyridin-7-yl)phenyl)-N^2,N^2-dimethylethane-1,2-diamine] | > 10 µM | 33% | 15.5% | > 10 µM
CS(=O)(=O)NCc1cc(F)cc(-c2ccnc3[nH]c(-c4n[nH]c5ccc(-c6cncc(NC(=O)c7ccccc7)c6)nc45)nc23)c1 [Compound 487, N-(5-(3-(7-(3-Fluoro-5-(methylsulfonamidomethyl)phenyl)-3H-imidazo[4,5-b]pyridin-2-yl)-1H-pyrazolo[4,3-b]pyridin-5-yl)pyridin-3-yl)benzamide] | > 10 µM | 0% | 7.1% | > 10 µM
